SMILES strings stand for the structures. Structures can show the parent of a compound that is named as a salt.

The first experiment relates to 4 PI3K isoforms (Human recombinant GST-PI3K). In words: PI3K scintillation proximity assay, best IC50 obtained with the four isoforms (alpha, beta, delta, gamma). Type of experiment: biochemical. To be noted: best IC50 obtained with the four isoforms of PI3K; read-out: Best potency measured on the 4 PI3K isoforms. (In a scintillation proximity assay essentially only radioactivity close to the scintillant gives light.)
Take `COCCN1CCC(n2nc(C(=O)N3CCOCC3)c3c2-c2ccccc2S(=O)(=O)C3)C1` (centres unmarked) [Example 255, 1-[1-(2-Methoxyethyl)pyrrolidin-3-yl]-3-(morpholin-4-ylcarbonyl)-1,4-dihydrothiochromeno[4,3-c]pyrazole 5,5-dioxide]: the IC50 stood at 1480 nM. In the case of `CC(=O)OCCN1CCC(n2nc(C(=O)N3CCOCC3)c3c2-c2ccccc2S(=O)(=O)C3)C1` (centres unmarked) [Example 299, 2{3-[3-(Morpholin-4-ylcarbonyl)-5,5-dioxidothiochromeno[4,3-c]pyrazol-1(4H)-yl]pyrrolidin-1-yl)ethyl acetate], the IC50 amounted to 871 nM. On the same count and under the same terms, the value for `O=C(c1nn(C2CCCNCC2)c2c1CS(=O)(=O)c1ccccc1-2)N1CCOCC1` (centres unmarked) [Example 82] was 1900 nM; that for `O=C(c1nn(-c2cccc(N3CCCC3)c2)c2c1CS(=O)(=O)c1ccccc1-2)N1CCOCC1` [Example 181, 3-(Morpholin-4-ylcarbonyl)-1-(3-pyrrolidin-1-ylphenyl)-1,4-dihydrothiochromeno[4,3-c]pyrazole 5,5-dioxide] was 4950 nM.

On to `COc1ccc2c(c1)S(=O)(=O)Cc1c(C(=O)N3CCOCC3)nn([C@H]3CCCN(CCN4CCC(F)CC4)C3)c1-2` (single isomer, unassigned) [Example 384, 1-{1-[2-(4-fluoropiperidin-1-yl)ethyl]piperidin-3-yl}-7-methoxy-3-(morpholin-4-ylcarbonyl)-1,4-dihydrothiochromeno[4,3-c]pyrazole 5,5-dioxide], for which the IC50 was found to be 19 nM.

Turning to `O=C(c1nn([C@H]2CCCN(CCN3CCC(F)CC3)C2)c2c1CS(=O)(=O)c1ccccc1-2)N1CCOCC1` (single isomer, unassigned) [Example 363, 1-{1-[2-(4-fluoropiperidin-1-yl)ethyl]piperidin-3-yl}-3-(morpholin-4-ylcarbonyl)-1,4-dihydrothiochromeno[4,3-c]pyrazole 5,5-dioxide], the IC50 came out at 25 nM.

Consider `CS(=O)(=O)N1CCCC(n2nc(C(=O)N3CCOCC3)c3c2-c2ccccc2S(=O)(=O)C3)C1` (centres unmarked) [Example 135, 1[1-(Methylsulfonyl)piperidin-3-yl]-3-(morpholin-4-ylcarbonyl)-1,4-dihydrothiochromeno[4,3-c]pyrazole 5,5-dioxide], for which the IC50 was found to be 994 nM.

Take `O=C(c1nn(C2CCCN(c3ccccc3)C2)c2c1CS(=O)(=O)c1ccccc1-2)N1CCOCC1` (centres unmarked) [Example 218, 3-(Morpholin-4-ylcarbonyl)-1-(1-phenylpiperidin-3-yl)-1,4-dihydrothiochromeno[4,3-c]pyrazole 5,5-dioxide]: the IC50 was 468 nM. On to `COCCN(CCOC)CCN1CCC[C@H](n2nc(C(=O)N3CCOCC3)c3c2-c2ccccc2S(=O)(=O)C3)C1` (stereo in doubt) [Example 448, 2-methoxy-N-(2-methoxyethyl)-N-(2-{3-[3-(morpholin-4-ylcarbonyl)-5,5-dioxidothiochromeno[4,3-c]pyrazol-1(4H)-yl]piperidin-1-yl}ethyl)ethanamine], for which the IC50 worked out at 113 nM. For the compound `COc1ccc2c(c1)S(=O)(=O)Cc1c(C(=O)N3CCOCC3)nn(C)c1-2` [Example 4, 7-methoxy-1-methyl-3-(morpholin-4-ylcarbonyl)-1,4-dihydrothiochromeno[4,3-c]pyrazole 5,5-dioxide], the IC50 came to 422 nM. Consider `CN(C)Cc1cccc(-n2nc(C(=O)N3CCOCC3)c3c2-c2ccccc2S(=O)(=O)C3)c1` [Example 179, N,N-Dimethyl-1-{3-[3-(morpholin-4-ylcarbonyl)-5,5-dioxidothiochromeno[4,3-c]pyrazol-1 (4H)-yl]phenyl}methanamine], for which the IC50 was found to be 1110 nM.

As for `O=C(c1nn(-c2ccc(CN3CCOCC3)cc2)c2c1CS(=O)(=O)c1ccc(F)cc1-2)N1CCOCC1` [Example 392, 8-Fluoro-3-(morpholin-4-ylcarbonyl)-1-[4-(morpholin-4-ylmethyl)phenyl]-1,4-dihydrothiochromeno[4,3-c]pyrazole 5,5-dioxide], the IC50 turned out to be 555 nM.

As to `O=C(c1nn(C2CCCCCC2)c2c1CS(=O)(=O)c1ccccc1-2)N1CCOCC1` [Example 78, 1-Cycloheptyl-3-(morpholin-4-ylcarbonyl)-1,4-dihydrothiochromeno[4,3-c]pyrazole 5,5-dioxide], the IC50 amounted to 469 nM.

As for `O=C(c1nn(-c2cccc(CN3CCCC(F)(F)C3)c2)c2c1CS(=O)(=O)c1ccccc1-2)N1CCOCC1` [Example 244, 1-{3-[(3,3-Difluoropiperidin-1-yl)methyl]phenyl}-3-(morpholin-4-ylcarbonyl)-1,4-dihydrothiochromeno[4,3-c]pyrazole 5,5-dioxide], the IC50 is 1540 nM.

In the case of `O=C(c1nn(C2CCCN(CCN3CC[C@H](F)C3)C2)c2c1CS(=O)(=O)c1ccccc1-2)N1CCOCC1` (single isomer, unassigned) [Example 282], the IC50 was 72 nM. Take `O=C(c1nn(Cc2ccccn2)c2c1CS(=O)(=O)c1ccccc1-2)N1CCOCC1` [Example 47, 3-(morpholin-4-ylcarbonyl)-1-(pyridin-2-ylmethyl)-1,4-dihydrothiochromeno[4,3-c]pyrazole 5,5-dioxide]: the IC50 came out at 3960 nM.

Turning to `COc1ccc2c(c1)S(=O)(=O)Cc1c(C(=O)N3CCOCC3)nn(-c3ccccc3)c1-2` [Example 5, 7-methoxy-3-(morpholin-4-ylcarbonyl)-1-phenyl-1,4-dihydrothiochromeno[4,3-c]pyrazole 5,5-dioxide], the IC50 worked out at 349 nM. On the same count and under the same terms, the figure for `CN(C)CC(C)(C)c1ccc(-n2nc(C(=O)N3CCOCC3)c3c2-c2ccccc2S(=O)(=O)C3)cc1` [Example 458, N,N,2-Trimethyl-2-{4-[3-(morpholin-4-ylcarbonyl)-5,5-dioxidothiochromeno[4,3-c]pyrazol-1(4H)-yl]phenyl}propan-1-amine hydrochloride] is 159 nM. The same measure, in the same setting: the value for `O=C(c1nn(CC2CCCCC2)c2c1CS(=O)(=O)c1ccccc1-2)N1CCOCC1` [Example 51, 1-(cyclohexylmethyl)-3-(morpholin-4-ylcarbonyl)-1,4-dihydrothiochromeno[4,3-c]pyrazole 5,5-dioxide] was 509 nM; that for `CC(C)CCN1CCCC(n2nc(C(=O)N3CCOCC3)c3c2-c2ccccc2S(=O)(=O)C3)C1` (centres unmarked) [Example 173, 1-[1-(3-Methylbutyl)piperidin-3-yl]-3-(morpholin-4-ylcarbonyl)-1,4-dihydrothiochromeno[4,3-c]pyrazole 5,5-dioxide] was 138 nM; that for `O=C(c1nn(CC2CCOCC2)c2c1CS(=O)(=O)c1ccccc1-2)N1CCOCC1` [Example 52, 3-(morpholin-4-ylcarbonyl)-1-(tetrahydro-2H-pyran-4-ylmethyl)-1,4-dihydrothiochromeno[4,3-c]pyrazole 5,5-dioxide] was 789 nM.

For `COc1ccc2c(c1)-c1c(c(C(=O)N3CCOCC3)nn1-c1ccccc1)CS2(=O)=O` [Example 113, 8-Methoxy-3-(morpholin-4-ylcarbonyl)-1-phenyl-1,4-dihydrothiochromeno[4,3-c]pyrazole 5,5-dioxide], the IC50 is 3350 nM. `CC1CN(Cc2ccc(-n3nc(C(=O)N4CCOCC4)c4c3-c3ccccc3S(=O)(=O)C4)cc2)CC(C)O1` (centres unmarked) [Example 435, 1-{4-[(2,6-Dimethylmorpholin-4-yl)methyl]phenyl}-3-(morpholin-4-ylcarbonyl)-1,4-dihydrothiochromeno[4,3-c]pyrazole 5,5-dioxide]: the IC50 is 57 nM.

For the compound `COCC(=O)N1CCC[C@H](n2nc(C(=O)N3CCOCC3)c3c2-c2ccccc2S(=O)(=O)C3)C1` (stereo in doubt) [Example 447, 1-[1-(methoxyacetyl)piperidin-3-yl]-3-(morpholin-4-ylcarbonyl)-1,4-dihydrothiochromeno[4,3-c]pyrazole 5,5-dioxide], the IC50 turned out to be 261 nM.

For `O=C(c1nn(-c2ccccc2)c2c1CS(=O)(=O)c1ncccc1-2)N1CCOCC1` [Example 132, 3-(Morpholin-4-ylcarbonyl)-1-phenyl-1,4-dihydropyrazolo[3′,4′:4,5]thiopyrano[2,3-b]pyridine 5,5-dioxide], the IC50 stood at 530 nM. As to `O=C(c1nn(-c2cccc(Br)c2)c2c1CS(=O)(=O)c1ccccc1-2)N1CCOCC1` [Example 25, 1-(3-bromophenyl)-3-(morpholin-4-ylcarbonyl)-1,4-dihydrothiochromeno[4,3-c]pyrazole 5,5-dioxide], the IC50 is 616 nM. Same read-out and setting: the value for `O=C(c1nn(CCc2ccccc2)c2c1CS(=O)(=O)c1ccccc1-2)N1CCOCC1` [Example 41, 3-(morpholin-4-ylcarbonyl)-1-(2-phenylethyl)-1,4-dihydrothiochromeno[4,3-c]pyrazole 5,5-dioxide] was 1440 nM; that for `O=C(c1nn(-c2ccc(CN3CCCC3)cc2)c2c1CS(=O)(=O)c1ccccc1-2)N1CCOCC1` [Example 228, 3-(Morpholin-4-ylcarbonyl)-1-[4-(pyrrolidin-1-ylmethyl)phenyl]-1,4-dihydrothiochromeno[4,3-c]pyrazole 5,5-dioxide] was 285 nM; that for `COC1CCN(CCN2CCC[C@H](n3nc(C(=O)N4CCOCC4)c4c3-c3ccccc3S(=O)(=O)C4)C2)CC1` (stereo in doubt) [Example 460, 1-{1-[2-(4-methoxypiperidin-1-yl)ethyl]piperidin-3-yl}-3-(morpholin-4-ylcarbonyl)-1,4-dihydrothiochromeno[4,3-c]pyrazole 5,5-dioxide] was 21 nM.

Regarding `O=C(c1cccc(-n2nc(C(=O)N3CCOCC3)c3c2-c2ccccc2S(=O)(=O)C3)c1)N1CCC(O)CC1` [Example 143, 1-{3-[3-(Morpholin-4-ylcarbonyl)-5,5-dioxidothiochromeno[4,3-c]pyrazol-1 (4H)-yl]benzoyl}piperidin-4-ol], the IC50 was 371 nM. Regarding `Cc1ccc(F)cc1-n1nc(C(=O)N2CCOCC2)c2c1-c1ccccc1S(=O)(=O)C2` [Example 8, 1-(5-fluoro-2-methylphenyl)-3-(morpholin-4-ylcarbonyl)-1,4-dihydrothiochromeno[4,3-c]pyrazole 5,5-dioxide], the IC50 is 4200 nM.

The same experiment, now with this note: inhibition at 20 μM.
With `CC1CN(C(=O)c2nn(-c3ccccc3)c3c2CS(=O)(=O)c2ccccc2-3)CC(C)O1` (centres unmarked) [Example 337], the “Best potency measured on the 4 PI3K isoforms, % inh @20 μM” value worked out at 11% inh @20 μM.

These data come from patent US9073940B2, “Tricyclic pyrazol amine derivatives” (MERCK SERONO SA, priority 2009, dated 2015).
